Experimental data taken from ChEMBL document CHEMBL1201862, “PubChem BioAssay data set” (2004).
The source made the active and inactive calls.

Assays:
[1] = molecular target: T1, Polyadenylate-binding protein 1 (Homo sapiens, UniProt P11940); assay: MLLE binding blockers, Cy5 peptide tracer – biochemical, fluorescence polarization, Cy5-PAM2 peptide, secondary, miRNA deadenylation inhibitor project, dose response (AID 602260); assay type: functional; conditions: read-out: IC50_Mean
[2] = molecular target: T2, Mannose-6-phosphate isomerase (Homo sapiens, UniProt P34949); assay: MPI inhibition at elevated mannose 6-phosphate – biochemical, fluorescence intensity, high mannose 6-phosphate, primary screen (AID 1220)
T2 sequence (P34949 whole entry): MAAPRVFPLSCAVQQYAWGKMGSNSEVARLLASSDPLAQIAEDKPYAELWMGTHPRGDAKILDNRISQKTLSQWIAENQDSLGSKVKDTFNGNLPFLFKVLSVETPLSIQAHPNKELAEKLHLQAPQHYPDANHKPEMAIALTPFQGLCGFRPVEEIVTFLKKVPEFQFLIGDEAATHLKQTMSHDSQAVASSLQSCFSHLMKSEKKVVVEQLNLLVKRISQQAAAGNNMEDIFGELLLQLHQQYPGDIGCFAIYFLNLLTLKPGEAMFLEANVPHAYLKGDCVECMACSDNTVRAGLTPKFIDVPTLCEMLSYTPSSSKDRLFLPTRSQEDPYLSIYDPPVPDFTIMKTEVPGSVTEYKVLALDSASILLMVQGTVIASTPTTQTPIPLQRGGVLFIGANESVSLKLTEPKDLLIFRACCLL

Nonstructural protein 1 = Nonstructural protein 1 (Influenza A virus, UniProt Q194T2); assay type: functional, Influenza A virus (A/California/07/2009(H1N1))
[3] = molecular target: T1, Polyadenylate-binding protein 1; assay: MLLE domain peptide-binding blockers, IC50 – biochemical, fluorescence polarization, FITC-PAM2 peptide, dose response (AID 602259); assay type: functional; conditions: read-out: IC50_Mean
Vero = assay: inhibition of WNV-induced cytopathic effect – cell-based, CPE readout (AID 1621); assay type: functional; conditions: Chlorocebus sabaeus
Estrogen receptor = molecular target: T3, Estrogen receptor (Homo sapiens, UniProt P03372);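 also: potency for inhibiting coactivator peptide recruitment to the receptor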
T3 sequence (P03372 whole entry): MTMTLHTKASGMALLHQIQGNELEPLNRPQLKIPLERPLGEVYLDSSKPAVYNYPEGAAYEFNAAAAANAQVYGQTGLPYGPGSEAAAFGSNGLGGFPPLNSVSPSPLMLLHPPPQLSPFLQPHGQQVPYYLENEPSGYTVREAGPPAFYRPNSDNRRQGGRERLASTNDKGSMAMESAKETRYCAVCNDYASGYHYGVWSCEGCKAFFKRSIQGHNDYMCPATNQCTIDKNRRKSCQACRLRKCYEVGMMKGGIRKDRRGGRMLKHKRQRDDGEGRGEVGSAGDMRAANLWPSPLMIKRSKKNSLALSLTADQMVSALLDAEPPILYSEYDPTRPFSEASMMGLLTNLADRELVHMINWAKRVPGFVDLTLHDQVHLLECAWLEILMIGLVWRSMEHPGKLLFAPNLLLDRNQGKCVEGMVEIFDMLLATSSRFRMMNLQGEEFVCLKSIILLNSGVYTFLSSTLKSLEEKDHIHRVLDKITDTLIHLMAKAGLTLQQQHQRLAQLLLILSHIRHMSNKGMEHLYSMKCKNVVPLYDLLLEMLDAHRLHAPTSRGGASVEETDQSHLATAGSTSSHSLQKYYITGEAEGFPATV

[4] = molecular target: T4, Carboxy-terminal domain RNA polymerase II polypeptide A small phosphatase 1 (Homo sapiens, UniProt Q9GZU7); assay: CTDSP1 inhibitors, concentration-response, biochemical, absorbance readout, ultra-high-throughput screen actives (AID 540297); assay type: functional
T4 sequence (Q9GZU7 whole entry): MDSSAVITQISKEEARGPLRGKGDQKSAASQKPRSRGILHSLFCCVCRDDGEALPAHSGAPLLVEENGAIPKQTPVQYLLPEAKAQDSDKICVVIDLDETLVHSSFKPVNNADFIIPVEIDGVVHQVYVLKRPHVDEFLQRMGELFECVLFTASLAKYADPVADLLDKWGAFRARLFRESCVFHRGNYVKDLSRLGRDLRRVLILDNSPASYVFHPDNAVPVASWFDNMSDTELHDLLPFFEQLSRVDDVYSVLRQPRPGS

Insulin-degrading enzyme = Insulin-degrading enzyme (Homo sapiens, UniProt P14735); assay: Dose Response: Fluorescence polarization-based cell-based high throughput dose response assay for inhibitors of insulin-degrading enzyme (IDE). [Related pubchem assays: 434962 (Primary screen (IDE inhibitors in singlicate)), 449730 (Counterscreen (Cytotoxicity in triplicate)), 435028 (Confirmation (IDE inhibitors in triplicate)), 434984 (Summary …; assay type: functional
[5] = Counterscreen for IDE inhibitors: Luminescence-based cell-based high throughput dose response assay to identify compounds that are cytotoxic to HEK cells. [Related pubchem assays: 434962 (Primary screen (IDE inhibitors in singlicate)), 449730 (Counterscreen (Cytotoxicity in triplicate)), 435028 (Confirmation (IDE inhibitors in triplicate)) …; assay type: functional; conditions: HEK293

T1 sequence (P11940 whole entry): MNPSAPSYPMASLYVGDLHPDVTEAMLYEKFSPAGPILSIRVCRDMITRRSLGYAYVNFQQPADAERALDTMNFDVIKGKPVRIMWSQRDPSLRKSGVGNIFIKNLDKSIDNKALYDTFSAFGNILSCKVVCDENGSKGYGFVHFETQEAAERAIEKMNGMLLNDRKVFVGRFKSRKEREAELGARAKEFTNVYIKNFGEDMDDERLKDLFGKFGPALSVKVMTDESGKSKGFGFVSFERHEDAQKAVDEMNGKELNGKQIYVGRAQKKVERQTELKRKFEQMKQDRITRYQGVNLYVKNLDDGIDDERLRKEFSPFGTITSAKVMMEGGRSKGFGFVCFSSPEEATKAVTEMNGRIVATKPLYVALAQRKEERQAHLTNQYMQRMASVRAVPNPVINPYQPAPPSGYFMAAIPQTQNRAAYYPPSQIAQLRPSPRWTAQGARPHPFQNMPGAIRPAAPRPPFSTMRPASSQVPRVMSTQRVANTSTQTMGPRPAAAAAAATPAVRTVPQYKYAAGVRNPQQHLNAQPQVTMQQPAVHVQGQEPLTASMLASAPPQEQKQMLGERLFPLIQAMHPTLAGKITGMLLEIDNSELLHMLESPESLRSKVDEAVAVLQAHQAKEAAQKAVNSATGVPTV
Insulin-degrading enzyme, sequence (P14735 whole entry): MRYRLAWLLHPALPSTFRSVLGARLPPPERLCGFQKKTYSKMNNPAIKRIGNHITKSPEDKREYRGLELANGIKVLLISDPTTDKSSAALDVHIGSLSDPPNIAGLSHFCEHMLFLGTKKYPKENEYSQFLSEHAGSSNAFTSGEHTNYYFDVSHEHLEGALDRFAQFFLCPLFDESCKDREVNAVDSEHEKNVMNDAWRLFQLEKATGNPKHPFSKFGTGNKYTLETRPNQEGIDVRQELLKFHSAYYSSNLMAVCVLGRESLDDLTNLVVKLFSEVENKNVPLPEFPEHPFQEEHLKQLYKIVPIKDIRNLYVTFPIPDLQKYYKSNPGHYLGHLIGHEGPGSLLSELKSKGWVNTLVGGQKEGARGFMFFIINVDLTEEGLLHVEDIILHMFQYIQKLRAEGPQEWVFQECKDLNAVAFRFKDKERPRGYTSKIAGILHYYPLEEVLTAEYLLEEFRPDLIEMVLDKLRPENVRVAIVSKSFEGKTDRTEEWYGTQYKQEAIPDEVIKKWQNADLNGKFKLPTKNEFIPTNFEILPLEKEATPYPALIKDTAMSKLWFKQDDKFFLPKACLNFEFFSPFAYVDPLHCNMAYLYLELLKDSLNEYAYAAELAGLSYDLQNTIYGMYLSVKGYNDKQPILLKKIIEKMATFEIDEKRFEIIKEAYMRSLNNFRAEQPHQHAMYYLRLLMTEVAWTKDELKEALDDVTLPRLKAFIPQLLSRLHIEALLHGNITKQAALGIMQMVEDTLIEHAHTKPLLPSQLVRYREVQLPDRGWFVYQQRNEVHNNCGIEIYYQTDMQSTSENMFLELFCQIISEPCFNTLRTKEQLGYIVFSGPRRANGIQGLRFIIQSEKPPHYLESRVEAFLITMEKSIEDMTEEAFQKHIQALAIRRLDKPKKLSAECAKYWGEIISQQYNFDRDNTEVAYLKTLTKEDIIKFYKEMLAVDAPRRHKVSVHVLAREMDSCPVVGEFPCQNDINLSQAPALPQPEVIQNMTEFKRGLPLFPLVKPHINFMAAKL
Nonstructural protein 1, sequence (Q194T2 whole entry, the tested form may be a part): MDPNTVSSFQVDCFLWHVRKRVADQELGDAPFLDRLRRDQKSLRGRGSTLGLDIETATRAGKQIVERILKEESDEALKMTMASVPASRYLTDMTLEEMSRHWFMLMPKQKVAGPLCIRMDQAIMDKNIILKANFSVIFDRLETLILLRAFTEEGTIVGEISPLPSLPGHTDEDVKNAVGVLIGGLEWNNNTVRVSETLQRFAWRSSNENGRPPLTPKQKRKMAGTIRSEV

O=C(O)CNC(=O)CC1SC(NN=C2CSC(=O)N2)=NC1=O (stereo unspecified)
IC50 [1]: > 66 µM (inactive) | IC50 [2]: 46.3 µM (active) | IC50 (Nonstructural protein 1): 7.74 µM (active) | IC50 [3]: > 66 µM (inactive)

Cc1ccc(C)c(CN2C(=O)c3ccccc3[S+]([O-])c3ccc(C(=O)NCCCN4CCCC4)cc32)c1 (stereo unspecified)
IC50 (Vero): 22 µM (active)

Cc1sc2ncnc(SCC(=O)NC(=O)NCc3ccco3)c2c1C
IC50 (Estrogen receptor): 11.5 µM (active) | IC50 [4]: 10.6 µM (active)

CCCCc1c(C)nc2ccc(Br)cc2c1SC(N)N
IC50 [2]: > 50 µM (not active)

CN(C)CCNS(=O)(=O)c1ccc(N2CCN(c3ccc(F)cc3)CC2)c([N+](=O)[O-])c1
IC50 (Vero): 20 µM (active)

Nc1c2c(nc3ccn(-c4ccccc4)c(=O)c13)CCCCC2
IC50 (Insulin-degrading enzyme): > 55.9 µM (not active) | IC50 [5]: 22.3 µM (not active)
